# Measured values as given in BindingDB's records for PubMed 39167893 (University of Petroleum and Energy Studies).
# Biological target: KRas/Son of Sevenless Homolog 1 (Homo sapiens, UniProt P01116+Q07889)
# Assay: Inhibition of KRAS G12D mutant/SOS1 (unknown origin) interaction by TR-FRET assay
# Sequence of KRas/Son of Sevenless Homolog 1 (P01116 whole entry G12D): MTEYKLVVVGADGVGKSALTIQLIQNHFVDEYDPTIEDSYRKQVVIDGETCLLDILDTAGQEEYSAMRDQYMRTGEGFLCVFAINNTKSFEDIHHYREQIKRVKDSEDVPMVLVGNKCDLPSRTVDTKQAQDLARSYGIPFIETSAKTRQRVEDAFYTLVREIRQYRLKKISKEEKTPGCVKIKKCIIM
# Sequence of KRas/Son of Sevenless Homolog 1 (Q07889 whole entry): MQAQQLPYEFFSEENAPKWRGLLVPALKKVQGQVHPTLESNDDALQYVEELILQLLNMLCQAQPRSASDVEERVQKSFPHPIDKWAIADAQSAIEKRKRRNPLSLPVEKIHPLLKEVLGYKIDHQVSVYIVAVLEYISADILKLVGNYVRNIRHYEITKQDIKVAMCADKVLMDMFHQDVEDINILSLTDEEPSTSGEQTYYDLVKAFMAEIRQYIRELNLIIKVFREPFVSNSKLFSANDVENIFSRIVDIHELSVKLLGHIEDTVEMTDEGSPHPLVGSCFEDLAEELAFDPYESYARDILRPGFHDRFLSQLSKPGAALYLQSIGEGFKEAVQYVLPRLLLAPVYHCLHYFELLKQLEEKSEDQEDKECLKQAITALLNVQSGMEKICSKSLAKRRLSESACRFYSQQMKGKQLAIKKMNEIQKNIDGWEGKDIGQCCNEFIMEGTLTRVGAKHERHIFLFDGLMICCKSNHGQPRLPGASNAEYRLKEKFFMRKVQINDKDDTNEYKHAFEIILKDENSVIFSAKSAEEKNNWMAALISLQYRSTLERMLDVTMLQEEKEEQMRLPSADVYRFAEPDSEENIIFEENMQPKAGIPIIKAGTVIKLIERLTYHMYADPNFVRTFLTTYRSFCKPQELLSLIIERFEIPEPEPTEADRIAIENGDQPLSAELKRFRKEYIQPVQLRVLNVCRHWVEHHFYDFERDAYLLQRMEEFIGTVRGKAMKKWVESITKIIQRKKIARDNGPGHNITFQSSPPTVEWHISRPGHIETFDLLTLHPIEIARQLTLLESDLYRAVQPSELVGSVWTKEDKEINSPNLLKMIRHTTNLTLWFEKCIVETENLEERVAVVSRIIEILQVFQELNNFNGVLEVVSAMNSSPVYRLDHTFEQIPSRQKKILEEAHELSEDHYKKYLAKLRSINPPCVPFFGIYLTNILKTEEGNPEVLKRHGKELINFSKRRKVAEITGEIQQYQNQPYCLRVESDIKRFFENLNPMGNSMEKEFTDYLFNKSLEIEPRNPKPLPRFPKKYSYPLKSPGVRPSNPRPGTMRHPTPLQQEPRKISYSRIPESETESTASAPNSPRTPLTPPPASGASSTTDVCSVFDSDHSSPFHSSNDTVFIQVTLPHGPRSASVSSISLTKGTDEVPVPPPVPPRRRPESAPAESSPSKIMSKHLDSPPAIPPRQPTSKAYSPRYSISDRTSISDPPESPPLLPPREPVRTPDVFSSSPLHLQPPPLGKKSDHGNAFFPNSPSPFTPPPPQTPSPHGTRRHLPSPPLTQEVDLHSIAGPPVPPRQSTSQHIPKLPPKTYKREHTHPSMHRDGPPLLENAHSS
structure (smiles),measurement,value
Cn1cnc(Cn2ccc3ccc(CNCc4[nH]c5ccccc5c4[C@H]4NC(=O)c5ccc(O)cc54)cc32)c1,IC50,0.45 µM
